Assay [1] deals with human iPSC-derived neurons. The assay can be described thus: Population firing rate of iPSC-derived neurons on high-density microelectrode array (HD-MEA). In kind it is cell-based. As to conditions: added at 8 weeks after initiation of culture with increasing concentration; 1,024 electrodes per well; 10-minute recording per concentration. As to the method:
Electrophysiological responses of the human iPSC-derived neurons were analyzed by using a high-density microelectrode array system (HD-MEA, MaxWell Biosystems AG).
Human iPSC-derived neurons (product name “Quick-Neuron (trademark) Excitatory-Human iPSC-derived Neurons”, ELIXIRGEN SCIENTIFIC, INC.) were cultured in the same manner as in Experimental Example 1, except that the human iPSC-derived neurons were seeded on electrodes of the high-density microelectrode array (HD-MEA) at a cell density of 100,000 cells/well, and the local electric field potential was measured over time.
4-Aminopyridine (4-AP) serving as a potassium channel inhibitor and D-2-Amino-5-phosphonopentanoic acid (D-AP5) serving ax an NMDA receptor inhibitor were added in the culture medium of iPSC-derived neurons at 8 weeks after the initiation of culture while increasing each concentration, and population firing rate histograms were recorded with 1,024 electrodes per well. One-minute stabilization and 10-minute recording were performed for each concentration. Finally, the iPSC-derived neurons were washed with three medium replacements and left for one day, and it was confirmed that the effect of each drug had disappeared.

The subject of assay [2] is Human iPSC-derived mature stage 5 neurons. The assay can be described thus: Localization change of drebrin by immunostaining after glutamic acid treatment. In kind it is cell-based. The following applies: 100 μM for 10 min; immunostaining of MAP2, drebrin, nuclei. As to the method:
Human iPSC-derived mature stage 5 neurons were treated with 100 μM glutamic acid for 10 minutes and then immunostained to examine the localization change of drebrin. For comparison, a sample immunostained without glutamic acid treatment was also prepared.

From patent US20230399611A1, “PRODUCTION METHOD FOR STAGE 5 NEURONS” (Ricoh Company, Ltd., priority 2022, published 2023) come the findings set out here.

SMILES strings stand for the structures.

Regarding `Nc1ccncc1` [4-AP, 4-Aminopyridine], the “response of population firing rate to the drug” value in assay [1] is given as “dose-dependent responses”.

As to `N[C@H](CCCP(=O)(O)O)C(=O)O` [D-AP5, D-2-Amino-5-phosphonopentanoic acid], in assay [1], the “response of population firing rate to the drug” value was “dose-dependent responses”.

For the compound `N[C@@H](CCC(=O)O)C(=O)O` [glutamate, glutamic acid], the “localization change of drebrin” value in assay [2] is reported as “drebrin was effluxed from clusters in spines”.
